Source: PMC8697972, “New Auranofin Analogs with Antibacterial Properties against Burkholderia Clinical Isolates” (Antibiotics, 2021)

Assays:
[1] = test system: B. multivorans ATCC17616; assay type: cell-based, Burkholderia multivorans; conditions: B. multivorans ATCC17616
[2] = test system: B. contaminans FFH-2050MA; assay type: cell-based, Burkholderia contaminans; conditions: B. contaminans FFH-2050MA
[3] = test system: B. ubonensis LMG 20358; assay type: cell-based, Burkholderia ubonensis; conditions: B. ubonensis LMG 20358
[4] = test system: B. lata BCC6; assay type: cell-based, Burkholderia lata; conditions: B. lata BCC6
[5] = test system: B. contaminans FFH-4004; assay type: cell-based, Burkholderia contaminans; conditions: B. contaminans FFH-4004
[6] = test system: B. dolosa CEP021; assay type: cell-based, Burkholderia dolosa; conditions: B. dolosa CEP021
[7] = test system: B. contaminans MF16; assay type: cell-based, Burkholderia contaminans; conditions: B. contaminans MF16
[8] = test system: B. cenocepacia 140485; assay type: cell-based, Burkholderia cenocepacia; conditions: B. cenocepacia 140485
[9] = test system: B. cenocepacia K56-2; assay type: cell-based, Burkholderia cenocepacia; conditions: B. cenocepacia K56-2; CAMHB, 18 h, 37 °C
[10] = test system: B. cenocepacia K56-2 persister cells; assay: Time kill of persister cells generated with ciprofloxacin; assay type: cell-based, Burkholderia cenocepacia; conditions: in PBS, 3 h; MS-40S/MS-40 2× and 4× MIC, ciprofloxacin 5× MIC

Row | SMILES | MIC [1] [µg/mL] | MIC [2] [µg/mL] | MIC [3] [µg/mL] | MIC [4] [µg/mL] | MIC [5] [µg/mL] | MIC [6] [µg/mL] | MIC [7] [µg/mL] | MIC [8] [µg/mL] | MIC [9] [µg/mL] | killing of ciprofloxacin-generated persister cells [10]
1 | CC[P+](CC)(CC)[Au-][S][C@@H]1O[C@H](CO)[C@@H](O)[C@H](O)[C@H]1O [WB-18-FI3683] | 128 | 128 | > 128 | 128 | > 128 | > 128 | 128 | 64 | > 128 | –
2 | CC(=O)N[C@@H]1[C@@H](O)[C@H](O)[C@@H](CO)O[C@H]1[S][Au-][P+](C)(C)C [WB-19-HB2664] | 128 | 64 | 128 | 128 | 128 | > 128 | 128 | 128 | > 128 | –
3 | CC(=O)OC[C@H]1O[C@@H]([S][Au-][P+](C)(C)C)[C@H](OC(C)=O)[C@@H](OC(C)=O)[C@@H]1OC(C)=O [WB-19-HG5899] | 128 | 64 | 128 | 128 | 128 | > 128 | 128 | 128 | > 128 | –
4 | CP(C)C.CP(C)C.F[P-](F)(F)(F)(F)F.[Au+] [WB-19-HL4121a] | 64 | 32 | 128 | 32 | 64 | 128 | 32 | 32 | 128 | –
5 | C[P+](C)(C)[Au-][S]CCCO [WB-19-HL4172] | 32 | 16 | 32 | 16 | 32 | 32 | 32 | 32 | 32 | –
6 | C[P+](C)(C)[Au-][S]CCN [WB-19-HL4181] | 32 | 32 | 32 | 16 | 32 | 64 | 64 | 32 | 32 | –
7 | O=C(O)c1cn(C2CC2)c2cc(N3CCNCC3)c(F)cc2c1=O [ciprofloxacin, reference compound] | – | – | – | – | – | – | – | – | – | not killed
